In patent publication US20240189287A1, “PERIPHERALLY RESTRICTED CB1 RECEPTOR BLOCKERS AND USES THEREOF” (BIONANOSIM (BNS) LTD, priority 2021, published 2024):
Entries after “also recorded” stand apart in the source; their conditions may differ. Read-outs that look alike come from different tables or passages of the source.

Key:
HepG2 Cells = experiment: Cell Viability Assay in HepG2 Cells at 72 h; type: cell-based, human; conditions: Homo sapiens, HepG2, 72 h
Method: The liver plays a central role in transforming and clearing chemicals, and therefore is susceptible to toxicity of these agents. BNS808, BNS822 and other selected compounds were tested in the HepG2 assay using […] to evaluate cytotoxicity.

P-gp (MDR1, ABCB1) = experiment: MDR1-MDCK II cell permeation assay (bi-directional permeability, P-gp efflux); type: in vitro ADME; conditions: dog, MDCK-MDR1, pH 7.4
Method: (§1) Test and reference compounds were diluted with transport buffer (HBSS with 10 mM Hepes, pH 7.4) from stock solution to a concentration of 2 μM (DMSO<1%) and applied to the apical or basolateral side of the cell monolayer. Permeation of the test compounds from A to B direction or B to A direction was determined in duplicate with/without P-gp inhibitor (GF120918, 10 μM). […] The plate was incubated for 2.5 hours in CO2 incubator at 37±1° C., with 5% CO2 at saturated humidity without shaking. In addition, the efflux ratio of each compound was also determined. Test and reference compounds were quantified by LC-MS/MS analysis based on the peak area ratio of analyte/IS.
(§2) The in vitro bi-directional permeability across MDR1-MDCKII cells including P-glycoprotein (Pgp, ABCB1) efflux in the presence and absence of a P-gp inhibitor is an indicator as to the tendency of an orally administered compound to penetrate the brain.

MDR1-MDCKII cells = experiment: as above; type: in vitro ADME
Method: as §1, §2

[1] = tested on: Salmonella typhimurium (TA98, TA100); conditions: for increase in reversion over the negative control: TA98 and TA100, with and without S9
C57Bl/6J mice [2] = experiment: CNS-mediated hyperactivity, locomotor activity (Promethion); type: in vivo; conditions: wild-type male C57Bl/6J mice
Description: (§3) Locomotor activity: Locomotor activity was quantified by the number of disruptions of infrared XYZ beam arrays with a beam spacing of 0.25 cm in the Promethion High-Definition Behavioral Phenotyping System (Sable Instruments, Inc., Las Vegas, NV, USA).
(§4) The ability of BNS822 and BNS808 to induce CNS-mediated hyperactivity was further evaluated in a mouse model, using rimonabant (a brain penetrant CB1 receptor blocker) as a positive control. Mice (wild-type male C57Bl/6J) received a single dose of rimonabant (10 mg/kg IP), BNS822 (20 mg/kg PO) BNS 808 (1, 10 mg/kg PO) or vehicle; ambulatory activity was measured by the Promethion Metabolic System (Sable Instruments, Inc). In the same experimental scheme, BNS822, BNS808 and rimonabant were further studied regarding the potential to inhibit the hypomotility-induced by a CB1 receptor agonist, HU210, after a single dose of rimonabant (10 mg/kg IP), BNS822 (20 mg/kg PO) BNS808 (1, 10 mg/kg PO) or vehicle and a single dose of HU210 (30 μg/kg IP) 30 min after.

C57Bl/6J mice [3] = experiment: Inhibition of HU210-induced hypomotility; type: in vivo; conditions: HU210 30 μg/kg IP 30 min after
Description: as §3, §4

CB2 receptor = CB2 receptor (Homo sapiens (Human), UniProt P34972); experiment: CB2 receptor radioligand binding assay, [3H]CP-55,940 displacement, human kidney membranes
Method: Radioligand binding assays: Binding affinity was determined by a radioligand binding assay. The different BB8-conjugates binding to CB1 and CB2 receptors was assessed in competition displacement assays using [^3H]CP-55.940 as the radioligand and crude membranes from mouse brain for CB1 receptor and human kidney cells for CB2 receptor.
CB2 receptor binding assay: Human kidney membranes were used as the source material for CB2 receptors. The displacement of specifically bound tritiated CP-55,940 from these membranes using a standard filtration assay was used to determine the Ki values for the test compounds. Briefly, 1.25 μg of protein was incubated for 1.5 h at 30° C. in the presence of 0.5 nM [^3H]CP-55,940 and various concentrations (10^−5M-10^−11M) of test compound/control, final volume of 1 mL. The incubation was terminated by rapid filtration and washing, and the amount of specifically bound [^3H]CP-55,940 was determined. Briefly, membranes with bound [^3H]CP-55,940 were separated and washed from free ligand by vacuum filtration, adsorbing the membrane onto a Whatman glass microfiber filter paper ([…], Cat #1821271). Finally, the Whatman filter paper with adsorbed membranes was cut and placed in scintillation liquid (Ultima Gold) for 1 h at 25° C. followed by a β counter reading of bound [^3H]CP-55,940 radioligand. All data were in triplicates with Ki values determined using GraphPad Prism 7.02 analysis software.

mice [4] = experiment: Elevated plus-maze, anxiety-related behavior; type: in vivo; conditions: single dose 20 mg/kg PO
Method: Elevated plus-maze: Anxiety-related behaviors were assessed using the EPM test as reported previously. Animals were placed on the 5×5 cm central platform of an apparatus from which four arms, 30 cm×5 cm extended. Two of the arms (the closed arms) are enclosed within 15 cm high walls, and the two other arms (the open arms) have 1 cm high rims. The whole maze is elevated 75 cm above the ground. During the 6 min test time, the number of entries to each arm type (closed or open arms, frequencies) and the time spent in each type of arm (closed or open arms, duration) during the test were measured.

mice [5] = experiment: Catalepsy test (bar test), WIN55,212-induced; type: in vivo; conditions: single dose 20 mg/kg PO 30 min prior to WIN55,212 3 mg/kg IP
Method: Catalepsy test: Catalepsy was assayed using the bar test. Briefly, mice were removed from their home cage, and their forepaws were placed on a horizontal bar, 0.5 cm in diameter, positioned 4 cm above the bench surface. Vehicle-treated mice routinely let go of the bar within 2 sec. Cataleptic behavior was defined as the time the animals remained motionless holding on to the bar, with an arbitrary cutoff of 30 sec. The antagonists were given 30 min before the IP injection of 3 mg/kg WIN55,212. The test was performed 60 min after agonist administration.

CB2 receptor, sequence (P34972 whole entry): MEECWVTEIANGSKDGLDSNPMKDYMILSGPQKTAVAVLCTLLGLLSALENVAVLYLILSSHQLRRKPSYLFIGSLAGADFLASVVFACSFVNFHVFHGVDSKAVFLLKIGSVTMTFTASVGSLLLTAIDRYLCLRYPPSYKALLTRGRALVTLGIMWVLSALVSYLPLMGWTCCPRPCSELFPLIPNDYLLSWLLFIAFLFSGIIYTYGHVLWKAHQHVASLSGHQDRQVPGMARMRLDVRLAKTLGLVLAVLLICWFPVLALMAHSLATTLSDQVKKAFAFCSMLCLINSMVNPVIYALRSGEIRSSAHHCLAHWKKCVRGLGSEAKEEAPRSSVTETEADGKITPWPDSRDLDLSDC

Question: O=S(=O)(NC1CCCOc2c1nn(-c1ccccc1Cl)c2-c1ccc(Cl)cc1)c1ccc(Cl)cc1 (stereo not drawn) [BNS808, 4-chloro-N-[2-(2-chlorophenyl)-3-(4-chlorophenyl)-5,6,7,8-tetrahydrooxepino[3,2-c]pyrazol-8-yl]benzenesulfonamide] was tested. Which IC50 (HepG2 Cells; read-out: Absolute IC50 (μM)) did it give?
Answer: Its IC50 is 26.2 µM.

Question: What about the IC50 (HepG2 Cells; read-out: Relative IC50 (μM)) of the same compound?
Answer: The IC50 was 16.8 µM.

Question: And the efflux ratio at 2.5 h, 2 μM (P-gp (MDR1, ABCB1); efflux ratio in the presence of P-gp inhibitor GF120918, read-out: MDR1 B:A/A:B (+P-gp inhibitor))?
Answer: Its efflux ratio at 2.5 h, 2 μM is 1.88.

Question: What about the “Rank Papp” value (MDR1-MDCKII cells; MDCK-MDR1) of the same compound?
Answer: Its value is “Low”.

Question: What about the “MDR1 B:A/A:B” value (MDR1-MDCKII cells; efflux ratio, without P-gp inhibitor) of the same compound?
Answer: Its value is 3.95.

Question: And the “toxicity on AMES strains” value [1]?
Answer: The value was “no toxicity”.

Question: And the “AMES result (positive/negative)” value ([1]; TA98, S9 no)?
Answer: Its value is “negative”.

Question: And the “AMES result (positive/negative)” value ([1]; TA98, S9 yes)?
Answer: The value was “negative”.

Question: And the “increase in reversion over the negative control” value [1]?
Answer: Its value is under 2 fold.

Question: And the “AMES result (positive/negative)” value ([1]; TA100, S9 no)?
Answer: The value was “negative”.

Question: What about the “AMES result (positive/negative)” value ([1]; TA100, S9 yes) of the same compound?
Answer: Its value is “negative”.

Question: And the “locomotor activity (CNS-mediated hyperactivity)” value (C57Bl/6J mice [2]; single dose 1, 10 mg/kg PO)?
Answer: Its value is “no locomotor effects”.

Question: And the “effect on HU210-induced hypomotility” value (C57Bl/6J mice [3]; single dose 1, 10 mg/kg PO)?
Answer: The value was “apparent lack of effects”.

Question: How did the IC50 (HepG2 Cells; read-out: Absolute IC50) turn out when Cc1ccc(C)c(OCCCC(C)(C)C(=O)NC2CCCOc3c2nn(-c2ccccc2Cl)c3-c2ccc(Cl)cc2)c1 (stereo not drawn) [BNS822, N-[2-(2-chlorophenyl)-3-(4-chlorophenyl)-5,6,7,8-tetrahydrooxepino[3,2-c]pyrazol-8-yl]-5-(2,5-dimethylphenoxy)-2,2-dimethyl-pentanamide] was run?
Answer: Its IC50 is over 100 µM.

Question: What about the IC50 (HepG2 Cells; read-out: Relative IC50) of the same compound?
Answer: Its IC50 is over 100 µM.

Question: And the Papp at 2.5 h, 2 μM (P-gp (MDR1, ABCB1); 2 μM, A to B, 2.5 hours)?
Answer: Its Papp at 2.5 h, 2 μM is under 0.02 ×10⁻⁶ cm/s.

Question: And the efflux ratio at 2.5 h, 2 μM (P-gp (MDR1, ABCB1); efflux ratio, without P-gp inhibitor, read-out: MDR1 B:A/A:B)?
Answer: The efflux ratio at 2.5 h, 2 μM was over 3.62.

Question: What about the P-gp substrate (MDR1-MDCKII cells) of the same compound?
Answer: The P-gp substrate was “P-gp substrates and Yes”.

Question: What about the “Rank Papp” value (MDR1-MDCKII cells) of the same compound?
Answer: The value was “Low”.

Question: And the “hCB2R Ki (nM)” value (CB2 receptor)?
Answer: The value was “No binding”.

Question: What about the “anxiogenic behavior in the Elevated Plus Maze” value (mice [4]) of the same compound?
Answer: Its value is “nor did it induce a robust anxiogenic response; also recorded: no anxiogenic effect”.

Question: And the “toxicity on AMES strains” value [1]?
Answer: Its value is “no toxicity”.

Question: What about the “AMES result (positive/negative)” value ([1]; TA98, S9 no) of the same compound?
Answer: Its value is “negative”.

Question: And the “AMES result (positive/negative)” value ([1]; TA98, S9 yes)?
Answer: The value was “negative”.

Question: What about the “increase in reversion over the negative control” value [1] of the same compound?
Answer: Its value is under 2 fold.

Question: And the “AMES result (positive/negative)” value ([1]; TA100, S9 no)?
Answer: The value was “negative”.

Question: What about the “AMES result (positive/negative)” value ([1]; TA100, S9 yes) of the same compound?
Answer: Its value is “negative”.

Question: And the “locomotor activity (CNS-mediated hyperactivity)” value (C57Bl/6J mice [2]; single dose 20 mg/kg PO)?
Answer: The value was “no locomotor effects”.

Question: What about the “WIN55,212-induced catalepsy” value (mice [5]) of the same compound?
Answer: Its value is “did not block; also recorded: no effect”.

Question: And the “effect on HU210-induced hypomotility” value (C57Bl/6J mice [3]; single dose 20 mg/kg PO)?
Answer: The value was “apparent lack of effects”.
